Laboratory results published in ChEMBL document CHEMBL1201862, “PubChem BioAssay data set” (2004).
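All cell lines were grown in 96-well plates and treated with compound for 48 hours. GI50 is the concentration that inhibits growth by half.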 Active and inactive are the calls of the source. Rule as the data show it: active = GI50 up to about 1.1 µM and inactive = higher.

Tests used:
Test in all cases: growth of human tumour cells (NCI), 48 h
SNB-75 = test system: SNB-75
HCC 2998 = test system: HCC 2998
LOX IMVI = test system: LOX IMVI
HOP-92 = test system: HOP-92
M19-MEL = test system: M19-MEL
RXF 393 = test system: RXF 393
RPMI-8226 = test system: RPMI-8226
NCI-H460 = test system: NCI-H460
HCT-15 = test system: HCT-15
SF-268 = test system: SF-268
OVCAR-8 = test system: OVCAR-8
SF-295 = test system: SF-295
CCRF-CEM = test system: CCRF-CEM
NCI-H23 = test system: NCI-H23
UACC-257 = test system: UACC-257
A498 = test system: A498
DU-145 = test system: DU-145
NCI-H522 = test system: NCI-H522
Hs-578T = test system: Hs-578T
MDA-MB-231 = test system: MDA-MB-231

Compound | GI50 (SNB-75) | GI50 (HCC 2998) | GI50 (LOX IMVI) | GI50 (HOP-92) | GI50 (M19-MEL) | GI50 (RXF 393) | GI50 (RPMI-8226) | GI50 (NCI-H460) | GI50 (HCT-15) [µM] | GI50 (SF-268) | GI50 (OVCAR-8) | GI50 (SF-295) | GI50 (CCRF-CEM) | GI50 (NCI-H23) | GI50 (UACC-257) | GI50 (A498) | GI50 (DU-145) | GI50 (NCI-H522) | GI50 (Hs-578T) | GI50 (MDA-MB-231)
FC(F)(F)C1(Cl)C(c2ccccc2)=C1c1ccccc1 | > 10 µM (inactive) | 17.7 µM (inactive) | 11.5 µM (inactive) | 14.8 µM (inactive) | 14.6 µM (inactive) | 13.3 µM (inactive) | 29.7 µM (inactive) | 16 µM (inactive) | 14.3 | 16.9 µM (inactive) | 14.9 µM (inactive) | 14.9 µM (inactive) | 2.49 µM (inactive) | 15.7 µM (inactive) | 14 µM (inactive) | – | – | – | – | –
O=C1C=CC(=O)c2c1ccc1c3ccccc3n(-c3ccccc3)c21 | 18.9 µM (inactive) | 24.9 µM (inactive) | 7.1 µM (inactive) | 2.61 µM (inactive) | 16.5 µM (inactive) | 1.71 µM (inactive) | 1.26 µM (inactive) | 17.9 µM (inactive) | 3.48 | 17.4 µM (inactive) | 4.56 µM (inactive) | 14.6 µM (inactive) | 0.304 µM (active) | 15.4 µM (inactive) | 5.65 µM (inactive) | 17.9 µM (inactive) | 19.8 µM (inactive) | 1.64 µM (inactive) | 17.7 µM (inactive) | 4.45 µM (inactive)
CC(=O)N(C)OC(=O)CC(=O)c1ccccc1 | 76.9 µM (inactive) | > 100 µM (inactive) | > 100 µM (inactive) | > 100 µM (inactive) | > 100 µM (inactive) | > 100 µM (inactive) | > 100 µM (inactive) | > 100 µM (inactive) | – | > 100 µM (inactive) | > 100 µM (inactive) | > 100 µM (inactive) | > 100 µM (inactive) | > 100 µM (inactive) | > 100 µM (inactive) | – | – | > 100 µM (inactive) | – | –
COc1ccccc1NC(=O)C1=C(C)NC(C)=C(C(=O)Nc2ccccc2OC)C1c1ccc(C2C(C(=O)Nc3ccccc3OC)=C(C)NC(C)=C2C(=O)Nc2ccccc2OC)cc1 | 10.2 µM (inactive) | 1.95 µM (inactive) | 1.29 µM (inactive) | 3.29 µM (inactive) | 3.15 µM (inactive) | 2.38 µM (inactive) | 2.43 µM (inactive) | 2.78 µM (inactive) | 2.72 | 2.82 µM (inactive) | 2.53 µM (inactive) | 1.53 µM (inactive) | 0.813 µM (active) | 2.39 µM (inactive) | 2.33 µM (inactive) | 6.12 µM (inactive) | – | 1.8 µM (inactive) | – | –
N#CC1(Cc2ccccc2Cl)c2ccccc2C=CN1C(=O)c1ccccc1 (stereo not given) | > 100 µM (inactive) | > 100 µM (inactive) | > 100 µM (inactive) | 52.7 µM (inactive) | > 100 µM (inactive) | 23.2 µM (inactive) | 66.5 µM (inactive) | – | 98.6 | > 100 µM (inactive) | > 100 µM (inactive) | 81.8 µM (inactive) | 57.4 µM (inactive) | 28.2 µM (inactive) | 78.7 µM (inactive) | > 100 µM (inactive) | – | 86.1 µM (inactive) | – | –
COc1cc2c(c(OC)c1OC)-c1ccc(SC)c(=O)cc1[C@@H](NC(=O)c1ccc(OC(C)=O)cc1)CC2 | 0.0332 µM (active) | 0.0218 µM (active) | 0.0137 µM (active) | 0.00257 µM (active) | 0.0265 µM (active) | 0.018 µM (active) | 0.0327 µM (active) | 0.0326 µM (active) | 0.0229 | 0.0306 µM (active) | 0.0313 µM (active) | 0.0217 µM (active) | 0.0329 µM (active) | 0.0212 µM (active) | 0.0349 µM (active) | 0.0227 µM (active) | – | 0.01 µM (active) | – | –
